Measurements: US20100130449A1, “Use of Tri-Substituted Glycerol Compounds for the Treatment of Radiation Injuries” (ALPHAPTOSE GMBH, priority 2006, published 2010)

Legend:
Assay type in all cases: in vivo
neutron irradiated mice [1] = test: Cell numbers in the peripheral blood of mice after neutron irradiation; conditions: for Granulocytes, median/interquartile distance / Leukocytes, median/interquartile distance / Lymphocytes, median/interquartile distance / Thrombocytes, median/interquartile distance: 300 cGy neutron
Protocol: Mice were irradiated using a van de Graaf generator with of 3-8 MeV neutrons. […] A single dose of 50 mg/kg ET18-OCH3 was administered to half of the mice by subcutaneous injection.
As the therapy experiments were carried out with an irradiation dose range, in which the hematological syndrome of the radiation injury predominates, the evaluation of the therapeutic effect of the drug on the blood forming (hematopoetic) system is important.

X-ray irradiated mice = test: Survival of X-ray irradiated mice, ET18-OCH3 given after irradiation; conditions: for Death/Survival treated: 2 × 25 mg/kg intravenous 6 hours and 12 hours after irradiation
Protocol: The efficacy of 1-O-octadecyl-2-O-methyl-glycero-3-phosphocholine (in the following referred to as “ET18-OCH3”) as a radioprotectant in the treatment of an acute radiation injury that is caused by (mid)lethal radiation doses was analyzed by determining its influence on the survival rate of mice and on the hematological syndrome of the radiation injury in response to different types of radiation.
A single dose of 25 mg/kg ET18-OCH3 was administered at a time intravenously to 25 mice 12 hours after exposure to an X-ray dose of 650 cGy (centiGray). Only one of the 25 treated mice died, as compared to 6 of the 25 mice in the control group.
After an intravenous administration of 25 mg/kg ET18-OCH3 6 hours and 12 hours after X-ray irradiation, respectively, the following results were obtained (Table 1). The chi-square distribution is given for all positive values. The chi-square test was used for comparing the results of the treated versus the control animals.
After an oral administration of 25 mg/kg ET18-OCH3 6 hours and 24 hours after exposure to a X-ray dose of 700 cGy X-ray irradiation, respectively, 2 of 25 treated animals died, as compared to 7 of 25 of the control animals.

gamma-radiated mice [2] = test: Survival of mice after gamma irradiation, single dose of ET18-OCH3 before or after irradiation
neutron irradiated mice [3] = test: Survival of mice, ET18-OCH3 given 1 day before neutron irradiation
Text: The effect of ET18-OCH3 before applying different doses of neutron radiation on the survival rates of mice are summarized in Table 5.

neutron irradiated mice [4] = test: Survival of mice after neutron radiation, ET18-OCH3 given after irradiation; conditions: 400-420 cGy neutron radiation, 50 mg/kg subcutaneous
Protocol: Mice were irradiated using a van de Graaf generator with of 3-8 MeV neutrons. The radiation doses used in the following analyses were 400, 410, and 420 cGy for each third of the treated and the control mice, respectively. A single dose of 50 mg/kg ET18-OCH3 was administered to half of the mice by subcutaneous injection.

neutron irradiated mice [5] = test: White blood cell count (hemogram) after ET18-OCH3 and neutron irradiation
Protocol: FIG. 2 depicts the radioprotective effect of ET18-OCH3 (referred to as “ALP”) on the lymphocyte numbers of mice. Mice were treated with a single dose 70 mg/kg ET18-OCH3 (administered subcutaneously) 24 hours before exposure to neutron radiation (radiation dose 2.0 Gy). […]
FIG. 3 depicts the radioprotective effect of ET18-OCH3 (referred to as “ALP”) on the granulocyte numbers of mice. The experiment was performed in an analogous manner as described in FIG. 2.
The radioprotective effect of ET18-OCH3 on lymphocyte and granulocyte numbers in mice is shown in FIG. 2 and FIG. 3, respectively.

gamma-radiated mice [6] = test: Survival of mice after gamma irradiation, single dose of ET18-OCH3 before or after irradiation; remark: listed apart in the source
Protocol: FIG. 1 depicts the radioprotective effect of ET18-OCH3 on the survival rate of mice. ET18-OCH3 was administered as a single dose of 50 mg/kg body weight to each of 40 mice (20 control mice, 20 test mice). 24 hours later, the 20 test mice were exposed to a gamma radiation dose of 7.9 Gy (Gray) and 8.7 Gy, respectively. The survival rates were monitored for 30 days.

[7] = day 7, 50 mg/kg s.c. 30 min after irradiation
[8] = day 7, 50 mg/kg s.c. 2 h after irradiation
[9] = day 14, 50 mg/kg s.c. 30 min after irradiation
[10] = day 14, 50 mg/kg s.c. 2 h after irradiation
[11] = gamma 750 cGy, 30 mg/kg, a.r. (after radiation)
[12] = gamma 750 cGy, 50 mg/kg, 1 d before irradiation
[13] = gamma 775 cGy, 40 mg/kg, a.r. (after radiation)
[14] = gamma 775 cGy, 50 mg/kg, 2 h before irradiation
[15] = gamma 775 cGy, 50 mg/kg, 1 d before irradiation
[16] = gamma 800 cGy, 40 mg/kg, a.r. (after radiation)
[17] = gamma 800 cGy, 50 mg/kg, 2 h before irradiation
[18] = gamma 830 cGy, 50 mg/kg, 1 d before irradiation
[19] = gamma 870 cGy, 50 mg/kg, 1 d before irradiation
[20] = neutron 425 cGy, 50 mg/kg subcutaneously 1 day before irradiation
[21] = neutron 425 cGy, 70 mg/kg subcutaneously 1 day before irradiation
[22] = neutron 450 cGy, 50 mg/kg subcutaneously 1 day before irradiation
[23] = neutron 450 cGy, 70 mg/kg subcutaneously 1 day before irradiation
[24] = gamma 790 cGy, 50 mg/kg, 1 d before irradiation

CCCCCCCCCCCCCCCCCCOCC(COP(=O)([O-])OCC[N+](C)(C)C)OC (stereo not drawn) [ET18-OCH3, 1-O-octadecyl-2-O-methyl-glycero-3-phosphocholine]
Granulocytes, median/interquartile distance (neutron irradiated mice [1]; [7]): 209/202
Leukocytes, median/interquartile distance (neutron irradiated mice [1]; [7]): 975/450
Lymphocytes, median/interquartile distance (neutron irradiated mice [1]; [7]): 684/255
Thrombocytes, median/interquartile distance (neutron irradiated mice [1]; [7]): 698/427
Granulocytes, median/interquartile distance (neutron irradiated mice [1]; [8]): 240/304
Leukocytes, median/interquartile distance (neutron irradiated mice [1]; [8]): 675/413
Lymphocytes, median/interquartile distance (neutron irradiated mice [1]; [8]): 446/132
Thrombocytes, median/interquartile distance (neutron irradiated mice [1]; [8]): 900/315
concentration of leukocytes and granulocytes in the peripheral blood (neutron irradiated mice [1]; day 10-15 after irradiation, when the irradiated mice died): significantly increases
Granulocytes, median/interquartile distance (neutron irradiated mice [1]; [9]): 3063/3121
Leukocytes, median/interquartile distance (neutron irradiated mice [1]; [9]): 8675/11827
Lymphocytes, median/interquartile distance (neutron irradiated mice [1]; [9]): 7439/6942
Thrombocytes, median/interquartile distance (neutron irradiated mice [1]; [9]): 533/263
Granulocytes, median/interquartile distance (neutron irradiated mice [1]; [10]): 4189/2282
Leukocytes, median/interquartile distance (neutron irradiated mice [1]; [10]): 9975/5863
Lymphocytes, median/interquartile distance (neutron irradiated mice [1]; [10]): 5101/3765
Thrombocytes, median/interquartile distance (neutron irradiated mice [1]; [10]): 987/464
Death/Survival treated (X-ray irradiated mice; X-ray dose 650 cGy): 2/28
Death/Survival treated (X-ray irradiated mice; X-ray dose 700 cGy): 3/25
Death/Survival treated (X-ray irradiated mice; X-ray dose 750 cGy): 14/16
Death/Survival treated (X-ray irradiated mice; X-ray dose 800 cGy): 22/8
treated animals died (X-ray irradiated mice; oral 25 mg/kg 6 hours and 24 hours after X-ray dose of 700 cGy, control 7 of 25 died): 2 of 25
treated mice died (X-ray irradiated mice; single dose 25 mg/kg intravenously 12 hours after X-ray dose of 650 cGy, control 6 of 25 died): one of the 25
LD50/30 X-ray dose (X-ray irradiated mice; treated animals, 25 mg/kg intravenous 6 and 12 hours after irradiation, untreated controls 688.1±38.6): 749±37.1 cGy
X-ray mediated lethality (X-ray irradiated mice; treated mice compared to control mice): delayed
Death (gamma-radiated mice [2]; [11]): 1 (6%)
Survival (gamma-radiated mice [2]; [11]): 17 (94%)
Death (gamma-radiated mice [2]; [12]): 0
Survival (gamma-radiated mice [2]; [12]): 20 (100%)
Death (gamma-radiated mice [2]; [13]): 12 (60%)
Survival (gamma-radiated mice [2]; [13]): 8 (40%)
Death (gamma-radiated mice [2]; [14]): 5 (25%)
Survival (gamma-radiated mice [2]; [14]): 15 (75%)
Death (gamma-radiated mice [2]; [15]): 2 (10%)
Survival (gamma-radiated mice [2]; [15]): 18 (90%)
Death (gamma-radiated mice [2]; [16]): 10 (29%)
Survival (gamma-radiated mice [2]; [16]): 25 (71%)
Death (gamma-radiated mice [2]; [17]): 3 (15%)
Survival (gamma-radiated mice [2]; [17]): 17 (85%)
Death (gamma-radiated mice [2]; [18]): 3 (15%)
Survival (gamma-radiated mice [2]; [18]): 17 (85%)
Survival (gamma-radiated mice [2]; [19]): 13 (65%)
LD50/30 gamma radiation dose (gamma-radiated mice [2]; treated irradiated mice, ET18-OCH3 one day before irradiation, probit analysis, untreated irradiated controls 7.47 Gy): 8.98 Gy
Death (neutron irradiated mice [3]; [20]): 11 (73%)
Survival (neutron irradiated mice [3]; [20]): 4 (27%)
Death (neutron irradiated mice [3]; [21]): 10 (67%)
Survival (neutron irradiated mice [3]; [21]): 5 (33%)
Death (neutron irradiated mice [3]; [22]): 8 (26%)
Survival (neutron irradiated mice [3]; [22]): 22 (73%)
Death (neutron irradiated mice [3]; [23]): 12 (80%)
Survival (neutron irradiated mice [3]; [23]): 3 (20%)
Death (neutron irradiated mice [3]; neutron 475 cGy, 50 mg/kg subcutaneously 1 day before irradiation): 19 (76%)
Survival/Death (neutron irradiated mice [4]; 30 min): 18 (75%)/6 (25%)
Survival/Death (neutron irradiated mice [4]; 2 h): 13 (54%)/11 (46%)
Survival/Death (neutron irradiated mice [4]; 6 h): 12 (52%)/11 (48%)
reduction of leukocyte numbers (both of lymphocytes and granulocytes) compared to untreated controls (neutron irradiated mice [5]; 50 mg/kg and 70 mg/kg, neutron irradiation, not statistically significant, 5 experiments, n=90): slightly increased
difference between the administration of 50 mg/kg and 70 mg/kg (neutron irradiated mice [5]; leukocyte numbers after neutron irradiation): No statistically significant difference
leukocyte numbers (both lymphocytes and granulocytes) (neutron irradiated mice [5]; starting at day 3 after irradiation, significant at day 7 (4 experiments; n=30, p<0.003)): increase in leukocyte numbers
number of lymphocyte relative to the normal value (neutron irradiated mice [5]; treated animals at mid-lethal irradiation doses, average): about one tenth
Death (gamma-radiated mice [6]; [24]): 2 (10%)
Survival (gamma-radiated mice [6]; [24]): 18 (90%)
Death (gamma-radiated mice [6]; [19]): 7 (35%)
radioprotective effect on survival (gamma-radiated mice [6]; similar when given either 24 hours or shortly before gamma irradiation): significant radioprotective effect
